# In ChEMBL document CHEMBL3885881, “DrugMatrix”:
# Species on record: Rattus norvegicus
# Test: DrugMatrix - Regimen: Daily Repeat
# Assay type: toxicity, organism-based, Sprague-Dawley
# Parameters: regimen Daily Repeat, gender Male, age 6-8 weeks
# Conditions: in vivo, po, route oral GAVAGE, vehicle .5 % CMC; for ABSOLUTE BASOPHIL / BASOPHIL / EOSINOPHIL / ERYTHROCYTE COUNT / HEMATOCRIT / HEMOGLOBIN / LEUKOCYTE COUNT / LYMPHOCYTE / MEAN CORPUSCULAR HEMOGLOBIN / MEAN CORPUSCULAR HEMOGLOBIN CONCENTRATION / MEAN CORPUSCULAR VOLUME / MONOCYTE / NEUTROPHIL / PLATELET COUNT: tissue Blood; for ALANINE AMINOTRANSFERASE / ALKALINE PHOSPHATASE / ASPARTATE AMINOTRANSFERASE / BLOOD UREA NITROGEN / CHLORIDE / CHOLESTEROL / CREATINE PHOSPHOKINASE / CREATININE / GLUCOSE / PHOSPHORUS / POTASSIUM / SODIUM / TOTAL BILIRUBIN / TOTAL PROTEIN: tissue Plasma
# [1] = 0 mg/kg, 72 h, dose level Control, time 3 day
# [2] = 0 mg/kg, 120 h, dose level Control, time 5 day
# [3] = 32 mg/kg, 72 h, dose level Low, time 3 day
# [4] = 32 mg/kg, 120 h, dose level Low, time 5 day
# [5] = 320 mg/kg, 72 h, dose level High, time 3 day
# [6] = 320 mg/kg, 120 h, dose level High, time 5 day
smiles,measurement,setting,value
C1CCC(C(CC2CCCCN2)C2CCCCC2)CC1 (stereo not drawn) [PERHEXILINE],ABSOLUTE BASOPHIL,[1],16.7 cells/µL
same,BASOPHIL,[1],0.17%
same,EOSINOPHIL,[1],0.62%
same,ERYTHROCYTE COUNT,[1],6.55 x10E6/uL
same,HEMATOCRIT,[1],42%
same,HEMOGLOBIN,[1],13.48 G/DL
same,LEUKOCYTE COUNT,[1],8.79 x10E3/uL
same,LYMPHOCYTE,[1],76.98%
same,MEAN CORPUSCULAR HEMOGLOBIN,[1],20.57 pg
same,MEAN CORPUSCULAR HEMOGLOBIN CONCENTRATION,[1],32.08 G/DL
same,MEAN CORPUSCULAR VOLUME,[1],64.1 fL
same,MONOCYTE,[1],2.12%
same,NEUTROPHIL,[1],19%
same,PLATELET COUNT,[1],1432.17 x10E3/uL
same,ALANINE AMINOTRANSFERASE,[1],42.83 u/L
same,ALKALINE PHOSPHATASE,[1],328.5 u/L
same,ASPARTATE AMINOTRANSFERASE,[1],78.33 u/L
same,BLOOD UREA NITROGEN,[1],14.5 mg/dL
same,CHLORIDE,[1],104.5 MEQ/L
same,CHOLESTEROL,[1],78.67 mg/dL
same,CREATINE PHOSPHOKINASE,[1],282.33 u/L
same,CREATININE,[1],0.25 mg/dL
same,GLUCOSE,[1],173.67 mg/dL
same,PHOSPHORUS,[1],12.83 mg/dL
same,POTASSIUM,[1],6.7 MEQ/L
same,SODIUM,[1],145.83 MEQ/L
same,TOTAL BILIRUBIN,[1],0.4 mg/dL
same,TOTAL PROTEIN,[1],5.93 G/DL
same,ABSOLUTE BASOPHIL,[2],28 cells/µL
same,BASOPHIL,[2],0.26%
same,EOSINOPHIL,[2],0.44%
same,ERYTHROCYTE COUNT,[2],6.99 x10E6/uL
same,HEMATOCRIT,[2],45.12%
same,HEMOGLOBIN,[2],14.26 G/DL
same,LEUKOCYTE COUNT,[2],9.42 x10E3/uL
same,LYMPHOCYTE,[2],79.92%
same,MEAN CORPUSCULAR HEMOGLOBIN,[2],20.44 pg
same,MEAN CORPUSCULAR HEMOGLOBIN CONCENTRATION,[2],31.62 G/DL
same,MEAN CORPUSCULAR VOLUME,[2],64.6 fL
same,MONOCYTE,[2],2.2%
same,NEUTROPHIL,[2],16.14%
same,PLATELET COUNT,[2],1062.2 x10E3/uL
same,ALANINE AMINOTRANSFERASE,[2],44 u/L
same,ALKALINE PHOSPHATASE,[2],342.6 u/L
same,ASPARTATE AMINOTRANSFERASE,[2],74.17 u/L
same,BLOOD UREA NITROGEN,[2],13 mg/dL
same,CHLORIDE,[2],103 MEQ/L
same,CHOLESTEROL,[2],72.83 mg/dL
same,CREATINE PHOSPHOKINASE,[2],184.67 u/L
same,CREATININE,[2],0.47 mg/dL
same,GLUCOSE,[2],168.17 mg/dL
same,PHOSPHORUS,[2],12.27 mg/dL
same,POTASSIUM,[2],6.98 MEQ/L
same,SODIUM,[2],147 MEQ/L
same,TOTAL BILIRUBIN,[2],0.65 mg/dL
same,TOTAL PROTEIN,[2],6.23 G/DL
same,ABSOLUTE BASOPHIL,[3],20 cells/µL
same,BASOPHIL,[3],0.17%
same,EOSINOPHIL,[3],0.47%
same,ERYTHROCYTE COUNT,[3],6.84 x10E6/uL
same,HEMATOCRIT,[3],42.07%
same,HEMOGLOBIN,[3],13.8 G/DL
same,LEUKOCYTE COUNT,[3],11 x10E3/uL
same,LYMPHOCYTE,[3],83.1%
same,MEAN CORPUSCULAR HEMOGLOBIN,[3],20.2 pg
same,MEAN CORPUSCULAR HEMOGLOBIN CONCENTRATION,[3],32.8 G/DL
same,MEAN CORPUSCULAR VOLUME,[3],61.57 fL
same,MONOCYTE,[3],1.9%
same,NEUTROPHIL,[3],12.83%
same,PLATELET COUNT,[3],1282.33 x10E3/uL
same,ALANINE AMINOTRANSFERASE,[3],33.33 u/L
same,ALKALINE PHOSPHATASE,[3],346 u/L
same,ASPARTATE AMINOTRANSFERASE,[3],61 u/L
same,BLOOD UREA NITROGEN,[3],11.67 mg/dL
same,CHLORIDE,[3],104.33 MEQ/L
same,CHOLESTEROL,[3],65.33 mg/dL
same,CREATINE PHOSPHOKINASE,[3],229 u/L
same,CREATININE,[3],0.37 mg/dL
same,GLUCOSE,[3],183.67 mg/dL
same,PHOSPHORUS,[3],13.7 mg/dL
same,POTASSIUM,[3],6.87 MEQ/L
same,SODIUM,[3],145.33 MEQ/L
same,TOTAL BILIRUBIN,[3],0.3 mg/dL
same,TOTAL PROTEIN,[3],5.73 G/DL
same,ABSOLUTE BASOPHIL,[4],150 cells/µL
same,BASOPHIL,[4],1.2%
same,EOSINOPHIL,[4],0.5%
same,ERYTHROCYTE COUNT,[4],7.42 x10E6/uL
same,HEMATOCRIT,[4],47.53%
same,HEMOGLOBIN,[4],15.03 G/DL
same,LEUKOCYTE COUNT,[4],12.21 x10E3/uL
same,LYMPHOCYTE,[4],82.57%
same,MEAN CORPUSCULAR HEMOGLOBIN,[4],20.33 pg
same,MEAN CORPUSCULAR HEMOGLOBIN CONCENTRATION,[4],31.7 G/DL
same,MEAN CORPUSCULAR VOLUME,[4],64.2 fL
same,MONOCYTE,[4],2.13%
same,NEUTROPHIL,[4],12.7%
same,PLATELET COUNT,[4],1404 x10E3/uL
same,ALANINE AMINOTRANSFERASE,[4],34.33 u/L
same,ALKALINE PHOSPHATASE,[4],375.33 u/L
same,ASPARTATE AMINOTRANSFERASE,[4],68.33 u/L
same,BLOOD UREA NITROGEN,[4],11.33 mg/dL
same,CHLORIDE,[4],102 MEQ/L
same,CHOLESTEROL,[4],67 mg/dL
same,CREATINE PHOSPHOKINASE,[4],206.67 u/L
same,CREATININE,[4],0.3 mg/dL
same,GLUCOSE,[4],187 mg/dL
same,PHOSPHORUS,[4],12.13 mg/dL
same,POTASSIUM,[4],6.8 MEQ/L
same,SODIUM,[4],149.67 MEQ/L
same,TOTAL BILIRUBIN,[4],0.3 mg/dL
same,TOTAL PROTEIN,[4],6.4 G/DL
same,ABSOLUTE BASOPHIL,[5],33.3 cells/µL
same,BASOPHIL,[5],0.33%
same,EOSINOPHIL,[5],0.4%
same,ERYTHROCYTE COUNT,[5],7.33 x10E6/uL
same,HEMATOCRIT,[5],45.27%
same,HEMOGLOBIN,[5],14.7 G/DL
same,LEUKOCYTE COUNT,[5],9.79 x10E3/uL
same,LYMPHOCYTE,[5],79.33%
same,MEAN CORPUSCULAR HEMOGLOBIN,[5],20.1 pg
same,MEAN CORPUSCULAR HEMOGLOBIN CONCENTRATION,[5],32.53 G/DL
same,MEAN CORPUSCULAR VOLUME,[5],61.77 fL
same,MONOCYTE,[5],1.37%
same,NEUTROPHIL,[5],17.17%
same,PLATELET COUNT,[5],1599 x10E3/uL
same,ALANINE AMINOTRANSFERASE,[5],47 u/L
same,ALKALINE PHOSPHATASE,[5],318.5 u/L
same,ASPARTATE AMINOTRANSFERASE,[5],61.67 u/L
same,BLOOD UREA NITROGEN,[5],9.67 mg/dL
same,CHLORIDE,[5],102.33 MEQ/L
same,CHOLESTEROL,[5],74 mg/dL
same,CREATINE PHOSPHOKINASE,[5],199.67 u/L
same,CREATININE,[5],0.33 mg/dL
same,GLUCOSE,[5],167 mg/dL
same,PHOSPHORUS,[5],14.17 mg/dL
same,POTASSIUM,[5],6.63 MEQ/L
same,SODIUM,[5],146.33 MEQ/L
same,TOTAL BILIRUBIN,[5],0.33 mg/dL
same,TOTAL PROTEIN,[5],6 G/DL
same,ABSOLUTE BASOPHIL,[6],50 cells/µL
same,BASOPHIL,[6],0.5%
same,EOSINOPHIL,[6],0.34%
same,ERYTHROCYTE COUNT,[6],7.26 x10E6/uL
same,HEMATOCRIT,[6],45.84%
same,HEMOGLOBIN,[6],14.82 G/DL
same,LEUKOCYTE COUNT,[6],10.17 x10E3/uL
same,LYMPHOCYTE,[6],80.92%
same,MEAN CORPUSCULAR HEMOGLOBIN,[6],20.46 pg
same,MEAN CORPUSCULAR HEMOGLOBIN CONCENTRATION,[6],32.36 G/DL
same,MEAN CORPUSCULAR VOLUME,[6],63.26 fL
same,MONOCYTE,[6],1.18%
same,NEUTROPHIL,[6],16.4%
same,PLATELET COUNT,[6],1254 x10E3/uL
same,ALANINE AMINOTRANSFERASE,[6],48.8 u/L
same,ALKALINE PHOSPHATASE,[6],300.75 u/L
same,ASPARTATE AMINOTRANSFERASE,[6],75.6 u/L
same,BLOOD UREA NITROGEN,[6],12.2 mg/dL
same,CHLORIDE,[6],102.2 MEQ/L
same,CHOLESTEROL,[6],68.6 mg/dL
same,CREATINE PHOSPHOKINASE,[6],173.4 u/L
same,CREATININE,[6],0.36 mg/dL
same,GLUCOSE,[6],186.4 mg/dL
same,PHOSPHORUS,[6],13.36 mg/dL
same,POTASSIUM,[6],6.38 MEQ/L
same,SODIUM,[6],146.8 MEQ/L
same,TOTAL BILIRUBIN,[6],0.28 mg/dL
same,TOTAL PROTEIN,[6],5.88 G/DL
